Reference: US20040248837A1, “Methods of treating pulmonary fibrotic disorders” (priority 2002, published 2004)

Columns and labels:
[1] = tested on: mice repetitively challenged with OVA; conditions: previous studies in our laboratory; administered 1 day before OVA challenge; cited from earlier work
[2] = tested on: mice repetitively challenged with OVA; experiment: Airway responsiveness to MCh in vivo (Penh, whole body plethysmograph); set-up: species or system BALB/c mice; conditions: pilot experiments
Description: Female BALB/c mice (16 mice/group) (The Jackson Laboratory, Bar Harbor, Me.) were used when they reached 8-10 wk of age. Mice were immunized s.c. on days 0, 7, 14, and 21 with 25 μg of OVA (OVA, grade V; Sigma) adsorbed to 1 mg of alum (Aldrich) in 200 μl normal saline. Intranasal OVA challenges (20 ng/50 μl in PBS) were administered on days 27, 29 and 31 under isoflurane (Vedco, Inc. St Joseph, Mo.) anesthesia. Intranasal OVA challenges were then repeated twice a week for 1, 3, or 6 months (see FIG. 1 for protocol). Age and sex matched control mice were sensitized but not challenged with OVA during the 1, 3, or 6 month study. Mice were sacrificed 24 hours after the final OVA challenge and bronchoalveolar lavage fluid and lungs were analyzed. […]
Airway responsiveness was assessed 24 hrs after the final OVA challenge (after 1, 3, or 6 months of repetitive OVA challenges), using a single chamber whole body plethysmograph obtained from Buxco (Troy, N.Y.), as previously described in this laboratory. […] The enhanced pause (Penh) correlates closely with pulmonary resistance measured by conventional two-chamber plethysmography in ventilated mice. […] The Penh values measured during each 3-min sequence were averaged and are expressed for each MCh concentration as the percentage of baseline Penh values following PBS exposure (Broide et al. supra).

[3] = tested on: mice repetitively challenged with OVA; experiment: Quantification of airway remodeling (pilot experiments); assay type: in vivo, BALB/c mice
Description: (§1) Female BALB/c mice (16 mice/group) (The Jackson Laboratory, Bar Harbor, Me.) were used when they reached 8-10 wk of age. Mice were immunized s.c. on days 0, 7, 14, and 21 with 25 μg of OVA (OVA, grade V; Sigma) adsorbed to 1 mg of alum (Aldrich) in 200 μl normal saline. Intranasal OVA challenges (20 ng/50 μl in PBS) were administered on days 27, 29 and 31 under isoflurane (Vedco, Inc. St Joseph, Mo.) anesthesia. Intranasal OVA challenges were then repeated twice a week for 1, 3, or 6 months (see FIG. 1 for protocol). Age and sex matched control mice were sensitized but not challenged with OVA during the 1, 3, or 6 month study. Mice were sacrificed 24 hours after the final OVA challenge and bronchoalveolar lavage fluid and lungs were analyzed.
Different groups of mice (16 mice/group) were administered i.p. endotoxin-free (<1 ng/mg DNA) phosphorothioate ISS-ODN (5′-[…]-3′; SEQ ID NO:01) (Trilink, San Diego, Calif.) (100 μg in 100 μl of sterile, endotoxin-free PBS), M-ODN (5′-[…]-3′; SEQ ID NO:02) which lacks the CpG motif present in ISS, or diluent control starting 1 day before the first intranasal OVA challenge on day 27, and then continuing every other week 1 day before intranasal challenges for 1, 3, or 6 months. […]

[4] = tested on: mice repetitively challenged with OVA; experiment: BAL eosinophil counts; assay type: in vivo, BALB/c mice; conditions: pilot experiments
Description: as §1
Throughout the Examples, therapeutic nucleic acids are referred to as “ISS.” ISS or diluent control was administered intraperitoneally (i.p.) starting 1 day before the first intranasal OVA challenge on day 26, and then continued every other week 1 day before intranasal challenges for 1, 3, or 6 months (see FIG. 1). All animal experimental protocols were approved by the University of California, San Diego Animal Subjects Committees. […]

[5] = tested on: ITGβ6; experiment: ITGβ6 (β6 integrin) gene transcription in lung tissue, RT-PCR; assay type: in vivo, C57BL/6 mice; conditions: B6 mice, i.v., 24 hrs; Pam3Cys 25 μg, polyI:C 25 μg, LPS 5 μg, TOG 2 mg, R848 18 μg, ISS 20 μg
Description: Twenty μg ISS was injected intravenously (i.v.) into C57BL/6 mice. At 0 hours, 2 hours, 4 hours, 8 hours, 16 hours, and 24 hours after injection, mice were killed and total RNA was isolated from lung. Transcription levels of IGFβ6 (β6 integrin) was analyzed by reverse transcription-polymerase chain reaction (RT-PCR). TNFα, IDO (2,3-indoleaminedioxygenase) and TGFβ1 were used as controls. […] Transcription of the other subunit of ITGαvβ6 (or αvβ6 integrin), i.e., ITGαv, was also analyzed by RT-PCR.
The long-term effect of ISS on gene expression in lung tissue was investigated. Twenty μg ISS was injected i.v. into C57 BL/6 mice. At 0 days, 1 day, 2 days, 3 days, 4 days, and 5 days post injection, mice were killed and total RNA was isolated from lung tissue. Transcription levels were analyzed by RT-PCR. […] The suppression of TGF-β activity was observed indirectly by the induction of MMP-12 (elastase) gene. Under normal conditions, MMP-12 expression is suppressed by TGF-β. […] In contrast, no change in mRNA levels of MMP-9 (gelatinase) was observed.
The kinetics of suppression of gene expression by ISS was analyzed. […] The level of ITGαv mRNA dropped to 20% of the initial levels within 30 minutes after i.v. injection of ISS.
MyD88 is a component of the TLR signaling pathway. It was shown that down-regulation of ITGβ6 gene transcription by ISS in lung tissue is dependent on MyD88. ISS suppressed ITGβ6 gene transcription in normal control mice, but not in MyD88^−/− mice.
Suppression of ITGβ6 gene transcription in lung tissue by a variety of TLR ligands was examined. Six different TLR ligands (Pam3Cys, 25 μg; polyI:C, 25 μg; LPS, 5 μg; TOG, 2 mg; R848, 18 μg; and ISS, 20 μg) were individually injected i.v. into B6 mice. After 24 hrs, mice were sacrificed and total RNA was isolated form lung tissue, and the level of ITGβ6 gene transcription in lung tissue was analyzed by RT-PCR. Each TLR agonist inhibited ITGβ6 gene transcription in lung tissue.

Row | Compound | OVA induced airway hyperreactivity [1] | OVA induced airway responsiveness [2] | features of airway remodeling [3] | OVA induced eosinophilic inflammation [4] | ITGβ6 gene transcription in lung tissue [5]
1 | M-ODN: 5′-TGACTGTGAAGGTTGGAGATGA-3′ (SEQ ID NO:02), which lacks the CpG motif present in ISS (DNA, backbone and methylation of C not given here) | not | did not inhibit | did not inhibit | did not inhibit | 
2 | Nc1nc2c(sc(=O)n2[C@@H]2O[C@H](CO)[C@@H](O)[C@H]2O)c(=O)[nH]1 [TOG, 7-thia-8-oxo-guanosine] |  |  |  |  | inhibited
3 | polyI:C |  |  |  |  | inhibited
4 | tripalmitoyl-S-glyceryl cysteine [Pam3Cys] |  |  |  |  | inhibited
